Laboratory results taken from patent US5980939A, “Cyclosporin-containing pharmaceutical composition” (Chong Kun Dang Corp., priority 1996, dated 1999).

Key:
[1] = Experiment 3: permeability of hydrophilic cosurfactant to the gelatin shell, content in soft capsule in course of time; type: physicochemical; conditions: for Change of the content of hydrophilic cosurfactant: solvent:Cremophor RH40 3:7 in soft capsule
Source text: Propylene glycol which contains --OH group in its molecular structure and therefore has high hygroscopic and hydrophilic properties is distributed in the capsule shell according to the movement of water present in the contents and gelatin capsule during encapsulation and drying procedures and therefore, is permeated to the capsule shell in course of time. According to this, since the constitutional ratio of the contents is greately varied at the early stage, of manufacturing procedures of the capsule preparation, the stability of the preparation cannot be ensured and further the reliable therapeutic effect cannot be obtained. […] Hereinafter, the permeability to the gelatin shell of the hydrophilic cosurfactant used in the soft capsule according to the present invention was determined and compared with the shell permeability of propylene glycol, transcutol, glycofurol or dimethylisosorbide used as the hydrophilic cosurfactant in the soft capsule according to the prior art. The content of each solvent in each soft capsule preparation was analyzed by gas chromatography and HPLC. […] At regular intervals, the constant amount of the sample was taken and then analyzed.
Column: Ultra 2; Column temperature: 23° C.; Detector: FID; Detector temperature: 270° C.; Injection temperature: 275° C.; Carrier gas: He; Injection volume: 5 μl; Internal standard: octyl alcohol
Column: 10% PEG 20M; Column temperature: 160° C.; Detector: FID; Injection temperature: 200° C.; Carrier gas: N2; Injection volume: 1 μl; Internal standard: pentadecanoic acid methyl ester
Column: Ultra 2; Column temperature: 230° C.; Detector: FID; Detector temperature: 270° C.; Injection temperature: 270° C.; Carrier gas: He; Injection volume: 5 μl; Internal standard: pentadecanoic acid methyl ester

[2] = species and route not given; cited from earlier work
mouse = conditions: intravenous injection; cited from earlier work
[3] = Experiment 1: reactivity of hydrophilic cosurfactant with the gelatin shell by thermoanalyzer (DSC/DDSC); type: physicochemical; conditions: soft gelatin capsule filled with solvent, stored at room temperature, 3 months
Procedure: Test for the reactivity of the hydrophilic cosurfactant according to the present invention with the gelatin shell in comparison to the reactivity of the solvents used in the prior art using a thermoanalyzer: The reactivities of the hydrophilic cosurfactant used according to the present invention and propylene glycol used as the hydrophilic cosurfactant in the prior preparation with the gelatin shell were determined using a thermoanalyzer. Each of the hydrophilic cosurfactants and mineral oil as the control solvent was filled in the soft gelatin capsule. The filled capsule was stored at room temperature. At regular intervals, the capsules were cut open by a sharp open blade, and the contents were removed by washing with ether and then about 20 mg of gelatin shell was accurately weighed and analyzed. The programed heating rate was 10° C./minute under nitrogen purge from 25 °C. to 300° C.

rat = conditions: per oral; cited from earlier work

Compound	Change of the content of hydrophilic cosurfactant ([1]; day 0) [wt %]	Change of the content of hydrophilic cosurfactant ([1]; day 5) [wt %]	Change of the content of hydrophilic cosurfactant ([1]; day 15) [wt %]	Change of the content of hydrophilic cosurfactant ([1]; day 30) [wt %]	Change of the content of hydrophilic cosurfactant ([1]; day 60) [wt %]	Change of the content of hydrophilic cosurfactant ([1]; day 90) [wt %]	Change of the content of hydrophilic cosurfactant ([1]; day 120) [wt %]	LD50 [2] [mg/kg]	stability of the cosurfactant content in soft capsule (in words) [1]	LD50 (mouse) [mL/kg]	DSC/DDSC pattern of gelatin shell versus shell of capsule filled with mineral oil [3]	LD50 (rat)
CCOCCOCCO [Transcutol, diethyleneglycol monoethyl ether]	30.1	22.1	23.1	21.9	22.1	21.7	20.3					
CC1COC(=O)O1 (racemic) [Propylene carbonate, (±)-4-methyl-1,3-dioxolan-2-one]	30.1	29.8	28.6	28.4	28.7	27.4	28.0	29000	at least comparable stability to dimethylisosorbide and is more stable than propylene glycol, transcutol and glycofurol			
tetrahydrofurfurylalcohol polyethylene glycol [Glycofurol]	30.0	24.4	21.0	23.5	21.0	20.7	20.4			3.5		
CC(O)CO (stereo not drawn) [Propylene glycol, 1,2-propylene glycol]	29.9	21.9	22.8	21.0	22.4	21.5	19.5				shows a new peak	21000 to 33700 mg/kg
CC(C)O [isopropanol]												5800 mg/kg
CC(C)=O [acetone]												10.7 mL/kg
CC#N [acetonitrile]												3800 mg/kg
CO[C@H]1CO[C@H]2[C@@H]1OC[C@H]2OC [Dimethylisosorbide, 1,4:3,6-dianhydro-2,5-dimethyl-D-glucitol]	30.0	28.2	29.1	28.7	28.0	26.6	25.8					5.63 mL/kg
c1ccccc1 [benzene]												3.8 mL/kg
